# Assay results as given in patent publication US20100189701A1, “METHODS AND COMPOSITIONS TO TREAT ARRHYTHMIAS” (priority 2007, published 2010).
# Columns and labels:
# Cx43 [1] = test: Western blot of HeLa cells expressing Cx43 exposed to 4PB; type: cell-based; details: HeLa cells transfected with Cx43, increasing doses
# Description: FIG. 34 illustrates a Western blot where HeLa cells expressing Cx43 have been exposed to increasing doses of 4PB.
# 4PB is an FDA approved drug that can be administered orally, which is being tested for effectiveness in spinal muscular atrophy (Wirth et al., 2006; Brahe et al., 2005), and cystic fibrosis (Singh et al., 2006). […] In addition, stress in the form of mildly elevated temperatures up-regulates connexin expression and increases the total number of functional channels (VanSlyke and Musil, 2005). The chemical chaperone (4PB), a known inhibitor of histone deacetylase, an enzyme associated with inactivation of gene transcription, increases Cx43 production at concentrations in the mM range and exposure times of hours. Not only is Cx43 production elevated 2-5 fold but enhanced dye transfer is observed (Asklund et al., 2004). […] The present inventors have determined that the time course of coupling between hMSCs or model cells with myocytes reaches 50% of maximum within 48 hours.
# Cx43, 40, 45 = test: Example 4: chemical chaperone treatment of hMSC/myocyte co-culture, connexin expression and coupling; type: cell-based; details: initial results
# Description: hMSCs and myocytes in co-culture are treated with a chemical chaperone (4 PB, 4-Phenylbutric acid, FDA approved) or zp123 (Rotigaptide) a synthetic antiarrhythmia peptide, that increases Cx43 mediated coupling. Western blot analysis and RT-PCR will be used to test protein abundance and expression for Cx43, 40, 45. Dual whole cell patch clamp will be used to determine the time course of junctional coupling. Western blot analysis and RT-PCR to test for protein abundance and expression for Cx43, 40, 45. The effects of 4PB and zp123 on hMSCs alone and myocytes alone will be assesed. Co-culturing of hMSCS and myocytes (atrial or ventricular) will also be done and a vital dye (Valiunas et al., 2005) will be used on hMSCs so that after defined time intervals of co-culture fluorescence activated cell sorting can be used to isolate the cell types and Western blot analysis and RT-PCR can be performed to assess abundance and expression respectively. A peptidase, such as dipeptidyl-peptidase or equivalent, will be used to cleave any zp123 that is secreted into the extracellular space. Dual whole cell patch clamp will be used to determine the time course of junctional coupling over a 96 hour interval at 24, 48 and 96 hours respectively. […] This should translate into enhanced coupling in the form of increased junctional conductance relative to controls.
# Cx43 [2] = details: mM range, exposure times of hours; cited from earlier work
# native SCN5A channel = native SCN5A channel (Homo sapiens, UniProt Q14524); details: cited from earlier work
# hMSCs = test: Patch clamp of hMSCs expressing SkM1 Na channel; type: cell-based, human; details: expressed in hMSCs
# Description: Left: An hMSC transfected with SkM1 was held at potentials between −100 mV and −70 mV and pulsed to 0 mV. Since the current induced from −70 mV is > half the magnitude of the current induced from −100 mV the midpoint of inactivation was positive to −70 mV. Right: hMSCs were held at holding potentials between −100 and −55 mV for 1.5 sec and pulsed to 0 mV for 150 msec. The Boltzmann 2-state fit gives a midpoint of −62.4±3.2 mV and a slope factor of −10.3±3.2 mV.
# For research on myocardial infarct-induced ventricular tachycardia, a Na channel gene with a more positive inactivation versus voltage relationship than found normally in cardiac myocytes was required. The skeletal muscle Na channel was investigated because of its reported midpoint of inactivation of −68 mV.
# [3] = test system: neonatal rat ventricular myocyte cultures; test: Conduction velocity in neonatal rat ventricular myocyte cultures on multi-electrode array; type: cell-based; details: K 5.4 to 10 mM
# neonatal myocytes = test: Action potential upstroke in neonatal myocytes under K depolarization; type: cell-based, rat
# Description: FIG. 49: Effect of K depolarization on action potential upstroke in neonatal myocytes in the absence and presence of SKM1 expression. […] The elevated K reduced the upstroke to 68% of its control value (mean value after elevated K is 56% of control). Bottom) In an SKM1 expressing myocyte the upstroke is better preserved, measuring 83% of its control value in elevated K.
# Top) In GFP but not SkM1 cultures there is a significant effect on CV of increasing K from 5.4 to 10 mM.
# Action potentials are recorded using a patch electrode in whole cell mode on cells superfused at 35° C. These experiments are conducted on monolayer cultures when studying control conditions or when employing viral expression, which achieves near uniform expression. For studying transfected cells, the culture is resuspended on the day of experiment and cells selected on the basis of GFP fluorescence, with the GFP being part of the channel vector or co-transfected with a separate vector. Extracellular and pipette solutions are as previously employed. The external solution contains (mM): NaCl 140, KCl 5.4, CaCl2 1, MgCl2 1, HEPES 5, glucose 10, adjusted to pH 7.4. The internal solution contains (mM): aspartic acid 130, KOH 146, NaCl10, CaCl2 2, EGTA 5, HEPES10, MgATP 2, adjusted to pH 7.2. […] Parameters recorded are Vmax, MDP, action potential amplitude (AMP) and APD50.
# epicardial border zone = test: Canine infarct epicardial border zone, electrograms and microelectrode study; type: in vivo, dog; details: 5 d after infarct and injection
# [4] = test system: neonatal myocyte cultures; test: Optical recording of CV and maximum pacing frequency in neonatal myocyte cultures; type: cell-based; details: high K (10.4 mM), vs GFP cultures
# Description: Adenoviral treated neonatal myocyte cultures expressed SkM1 or GFP and were studied in normal and high (10.4 mM) K. Left: The effectiveness of SkM1 expression to maintain high CV persists as pacing frequency increases.
# To determine if the gating characteristics of the expressed channel allow this protective effect to persist at higher frequencies, as may occur during reentrant arrhythmias, CV restitution relations in myocyte cultures expressing SkM1 Na channels+GFP and in control cultures (expressing GFP alone) was studied. FIG. 53 illustrates that CV remains greater as frequency increases, both in normal Tyrode's solution and in elevated K solution. Further, in the absence of SkM1, the breakpoint frequency is reduced in high K.
# [5] = cited from earlier work
# Sequence of native SCN5A channel (Q14524 whole entry): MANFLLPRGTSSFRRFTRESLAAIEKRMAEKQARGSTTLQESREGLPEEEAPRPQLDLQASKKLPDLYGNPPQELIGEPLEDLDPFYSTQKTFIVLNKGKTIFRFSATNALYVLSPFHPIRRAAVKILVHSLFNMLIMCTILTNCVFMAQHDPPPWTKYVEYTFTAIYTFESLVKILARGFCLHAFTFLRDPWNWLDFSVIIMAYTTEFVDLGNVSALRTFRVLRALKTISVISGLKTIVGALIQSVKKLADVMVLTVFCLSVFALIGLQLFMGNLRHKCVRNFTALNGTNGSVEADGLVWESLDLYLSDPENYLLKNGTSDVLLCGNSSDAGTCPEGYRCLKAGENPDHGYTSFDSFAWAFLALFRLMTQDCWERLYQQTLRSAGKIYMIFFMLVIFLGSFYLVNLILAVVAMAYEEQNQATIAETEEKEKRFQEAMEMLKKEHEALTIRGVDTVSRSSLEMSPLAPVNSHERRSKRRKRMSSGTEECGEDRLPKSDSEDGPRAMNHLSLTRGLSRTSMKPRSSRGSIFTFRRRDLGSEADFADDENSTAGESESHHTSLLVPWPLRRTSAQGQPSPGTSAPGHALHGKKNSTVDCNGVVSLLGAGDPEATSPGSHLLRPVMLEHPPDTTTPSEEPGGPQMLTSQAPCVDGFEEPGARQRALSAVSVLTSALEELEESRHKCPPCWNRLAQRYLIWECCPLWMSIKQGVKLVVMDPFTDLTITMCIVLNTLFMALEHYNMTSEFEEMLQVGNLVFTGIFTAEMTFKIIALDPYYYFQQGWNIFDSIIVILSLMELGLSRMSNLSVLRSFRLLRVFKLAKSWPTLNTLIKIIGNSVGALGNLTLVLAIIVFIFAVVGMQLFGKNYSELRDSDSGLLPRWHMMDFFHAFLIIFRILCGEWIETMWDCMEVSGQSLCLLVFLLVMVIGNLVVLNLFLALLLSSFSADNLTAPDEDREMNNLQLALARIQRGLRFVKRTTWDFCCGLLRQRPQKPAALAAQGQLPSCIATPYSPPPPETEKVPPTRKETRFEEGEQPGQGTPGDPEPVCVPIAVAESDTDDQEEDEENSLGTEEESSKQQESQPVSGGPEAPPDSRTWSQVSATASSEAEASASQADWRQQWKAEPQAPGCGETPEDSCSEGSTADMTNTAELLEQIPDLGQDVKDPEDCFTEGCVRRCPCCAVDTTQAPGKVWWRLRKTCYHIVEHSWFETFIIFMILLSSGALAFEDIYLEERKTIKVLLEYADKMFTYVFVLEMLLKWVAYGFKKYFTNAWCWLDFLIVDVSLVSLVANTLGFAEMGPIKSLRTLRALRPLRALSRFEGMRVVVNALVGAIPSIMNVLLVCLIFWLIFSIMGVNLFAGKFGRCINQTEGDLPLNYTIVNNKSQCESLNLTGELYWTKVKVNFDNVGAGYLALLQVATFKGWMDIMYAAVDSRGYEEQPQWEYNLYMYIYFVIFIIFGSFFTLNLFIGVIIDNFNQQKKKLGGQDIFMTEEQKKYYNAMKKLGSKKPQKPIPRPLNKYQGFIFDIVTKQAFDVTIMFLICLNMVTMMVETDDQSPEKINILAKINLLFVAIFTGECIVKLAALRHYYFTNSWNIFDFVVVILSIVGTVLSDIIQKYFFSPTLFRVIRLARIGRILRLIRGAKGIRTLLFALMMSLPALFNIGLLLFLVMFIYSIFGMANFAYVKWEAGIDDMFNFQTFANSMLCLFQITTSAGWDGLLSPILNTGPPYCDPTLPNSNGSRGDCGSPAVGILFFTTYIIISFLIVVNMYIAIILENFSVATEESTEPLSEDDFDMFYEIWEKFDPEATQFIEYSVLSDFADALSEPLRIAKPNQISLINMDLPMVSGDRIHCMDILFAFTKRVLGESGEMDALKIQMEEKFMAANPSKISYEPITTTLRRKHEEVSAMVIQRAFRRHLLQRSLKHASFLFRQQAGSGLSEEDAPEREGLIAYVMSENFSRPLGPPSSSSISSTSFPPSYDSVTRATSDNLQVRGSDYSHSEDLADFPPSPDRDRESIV
molecule,measurement,setting,value
"O=C(O)CCCc1ccccc1 [4PB, 4-Phenylbutric acid]",Cx43 expression,Cx43 [1],up-regulates Cx43
same,connexin up-regulation,"Cx43, 40, 45",causes up-regulation
same,Cx43 production elevated,Cx43 [2],2-5 fold
[Cd+2] [Cd^2+],Kd,native SCN5A channel,a few hundred
"SkM1: skeletal muscle sodium channel, expressed from gene in hMSCs or myocytes",midpoint of inactivation,hMSCs,−62.4±3.2 mV
same,Slope factor,hMSCs; Boltzmann 2-state fit,−10.3±3.2 mV
same,midpoint of inactivation,hMSCs; listed as skeletal muscle Na channel,−62 mV
same,midpoint of inactivation,hMSCs; listed as skeletal muscle sodium channel,−62 mV
same,effect of membrane depolarization on CV and V′max,[3],"significantly reduces CV and V′max of control cells, but not the SkM1 expressing cells"
same,Vmax,neonatal myocytes; 10 K,> 100 V/s
same,"action potential upstroke, % of control value",neonatal myocytes; elevated K (10 mM) vs 5.4 mM,83%
same,electrogram at injected epicardial border zone site,epicardial border zone,narrow spike
same,"Vmax, injected site 1 vs non-injected site 2",epicardial border zone; equivalent membrane depolarization,nearly twice that of site 2
same,break-point frequency (resistance to rhythm instabilities),[4],higher break-point frequencies
same,inactivation midpoint,[5]; as stated in Example 16 group description,−65 mV
same,activation midpoint,[5]; as worded,−68 mV
same,Slope factor,[5]; steady state inactivation,−5.4 mV
